Data from publication PMC8838898, “Identification of Novel Cannabinoid CB2 Receptor Agonists from Botanical Compounds and Preliminary Evaluation of Their Anti-Osteoporotic Effects” (Molecules, 2022).
Like-named read-outs stand apart in the source and are kept apart here.

Legend:
[1] = test system: osteoblasts derived from mBMSC; experiment: bone mineralization nodules of osteoblasts (alizarin red staining); assay type: cell-based, rat; conditions: 1 μM, 14 days
Description: (§1) BMSCs were isolated from the femur of 1-day-old Wistar rats and cultured in a dish containing α-MEM supplemented with 10% FBS, 100 U·mL^−1 penicillin, […] streptomycin, and 1% L-Glutaminea in a humidified atmosphere of 5% CO2 for 24 h. The medium was changed every three days. The subculture cells (passage 2–4) were used for subsequent experiments. BMSCs were identified in terms of the morphological character and properties of differentiation into osteoblasts. This experiment was approved by the Bioethics Committee of Zhejiang University of Traditional Chinese Medicine.
Cells were treated as described above for 14 days to observe the bone mineralized nodule formation using alizarin red staining solution. Briefly, the cells were washed with pre-cooled PBS twice, fixed with 3.7% formaldehyde for 10 min, and stained with ARS dye (pH = 4.2) containing 40 mM alizarin redstain for 10 min. The morphology and number of bone mineralized nodules of osteoblasts were observed under a light microscope.

[2] = target: T1, CB2R (Homo sapiens, UniProt P34972); experiment: forskolin-stimulated cAMP accumulation assay in HEK293-CB2 cells; assay type: cell-based; conditions: forskolin 30 min, then compound 6 h, read-out: IC50 of inhibition of forskolin-stimulated cAMP
T1 construct: expressed in transfected cells; host or cells: HEK293 cells stably transfected with pIRES2-EGFP-CB2, pGL4.29 [luc2P/CRE/Hygro] and pRL-TK
T1 sequence (P34972 whole entry): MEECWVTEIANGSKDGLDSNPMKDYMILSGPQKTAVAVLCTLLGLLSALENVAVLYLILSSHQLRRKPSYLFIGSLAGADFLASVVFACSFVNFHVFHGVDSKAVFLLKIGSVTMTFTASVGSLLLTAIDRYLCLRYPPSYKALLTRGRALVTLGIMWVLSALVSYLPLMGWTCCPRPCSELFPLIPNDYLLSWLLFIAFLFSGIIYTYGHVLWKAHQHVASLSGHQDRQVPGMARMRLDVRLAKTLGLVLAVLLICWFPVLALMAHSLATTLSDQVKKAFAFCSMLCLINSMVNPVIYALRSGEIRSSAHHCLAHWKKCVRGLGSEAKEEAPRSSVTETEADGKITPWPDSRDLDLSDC
Description: After treatment, the cell supernatant was diluted with PBS (pH 7.2–7.4). The cells were lysed by repeated freeze–thaw cycles and being centrifuged for 20 min at 2000–3000 r.p.m. The concentration of cAMP in the cell lysate was determined according to the instructions of the cAMP kit.

[3] = target: T1, CB2R; experiment: double luciferase reporter screening system in HEK293-CB2 cells; assay type: cell-based
Description: To generate the HEK293-CB2 cells, 5 × 10^5 HEK293 cells were cultured in a 60 mm culture dish for 12 h, washed with PBS, and then transfected with Lipofectamine 3000 reagent containing a test reporter plasmid, control reporter plasmid encoding Renilla luciferase, and effector plasmid. The ratio of the transfection plasmid pIRES2-EGFP-CB2, pGL4.29 [luc2P/CRE/Hygro], and pRL-TK was 2 μg, 10 μg, and 1μg, respectively. After a 24-htransfection, cells were selected and cultured in the medium containing G418 (800 μg·mL^−1) and hygromycin (400 μg·mL^−1) for two weeks. The surviving cells were picked and expanded as HEK293-CB2R cells.
Several aspects of the high-throughput screening system were optimized to ensure efficient and accurate application of the system for high-throughput data collection. To conduct high-throughput assays in 96-well plates, the number of cells seeded per well, incubation time, drug and AM630 concentrations, and the DMSO content were optimized. The dual luciferase assay was performed as described previously. […] Subsequently, the quantitative evaluation indexes of the high-throughput screening system, including the signal-to-background ratio, S/B = Msignal/Mbackground; signal window, SW = Msignal − Mbackground; signal-to-noise ratio, S/N = (Msignal − Mbackground)/SDbackground; signal background coefficient of variation, CV(%) = 100 × SDsignal/Msignal; and Z’ factor were determined to ensure its efficient and accurate application of the system in high-throughput data collection. Here, Z′ = 1 − 3(SDsignal + SDbackground)/|Msignal − Mbackground| [25], where M represents an average of the relative luminescence value and SD is the standard deviation of M.
The HEK293-CB2 cells from 10–40 passages were separately inoculated into 96-well plates at 5 × 10^3 cells per well. […] The results were expressed as relative luminescence values.
The HEK293-CB2 cells were inoculated on a 96-well culture plate with a density of 5 × 10^3 cells per well. […] The relative luminescence value was used to express the expression of CB2R.
Furthermore, the activation of the compounds on CB2R was also verified by using the CB2R inverse agonist AM630. The HEK293-CB2 cells were inoculated on a 6-well culture plate at a density of 5 × 10^4 cells per well. […] The expression of the CB2R gene is expressed by the relative luminescence value.

[4] = test system: mBMSCs cells; experiment: proliferation of BMSCs (CCK8); assay type: cell-based, rat; conditions: 1 μM, 48 h
Description: as §1
(§2) The BMSCs cells were inoculated in a 96-well plate at a density of 1 × 10^4 cells per well and cultured at 37 °C for 24 h. […] The optical density (OD) value was determined at 450 nm. The BMSCs cells were treated as described above and cultured for seven days to measure the ALP activity according to the kit instructions or cultured for five days to stain ALP in the osteoblasts according to the following procedures. Briefly, cells were washed with pre-cooled PBS twice and stained with the alkaline phosphatase staining solution for 30 min at 37 °C. After discarding the dye solution, cells were rinsed with distilled water three times and observed and photographed under a light microscope.

[5] = test system: osteoclasts derived from RAW264.7 cells; experiment: TRAP activity of osteoclasts derived from RAW264.7 cells induced with RANKL; assay type: cell-based, murine; conditions: 1 μM, three-day treatment; enzyme activity and cell staining
Description: The murine macrophage RAW264.7 cell line, which has the potential to differentiate into osteoclasts under the induction of RANKL, was obtained from the Cell Bank of the Chinese Academy of Sciences (Shanghai, China). The cells were cultured in DMEM containing 10% (v/v), 1% (v/v) penicillin, and streptomycin (Beyotime, Shanghai, China) at 37 °C in humidified air with 5% CO2, and then subcultured every two days. For induction of the osteoclasts, RAW264.7 cells were incubated with 25 ng·mL^−1 RANKL for 72 h. Osteoclasts were identified by TRAP staining.
RAW264.7 cells were inoculated in a 96-well plate at a density of 1 × 10^4 cells per well. After a 24-h culture at 37 °C, cells were treated with the test compounds for 48 h and cell viability was determined with the CCK-8 kit according to the instructions. RAW264.7 cells were inoculated on a 96-well culture plate at a density of 1 × 10^4 cells per well, induced with […] of nuclear factor-κB receptor activator ligand (RANKL) to differentiate into osteoclasts for 72 h. […] Briefly, the cells were washed with sodium thiobarbital twice, lysed with 0.1% Triton X-100 (10 μL per well) for 10 min, and then incubated with 100 μL of TRAP reaction solution (0.02 g disodium nitrophenyl phosphate and 0.1 g potassium sodium tartrate dissolved in 10 mL deionized water with pH adjusted to 3.5 by addition of 1 mol·L^−1 HCl) for 30 min at 37 °C. The reaction was terminated with 1 mol·L^−1 of NaOH solution (100 μL per well) and the absorbance was determined at a wavelength of 405 nm. The TRAP activity was expressed by the amount (mole) of p-nitrophenol produced by 100 osteoclasts. For staining, the osteoclasts were treated as described above, stained according to the instruction of the TRAP staining kit, and observed and photographed under a light microscope.

[6] = test system: osteoblasts derived from mBMSC; experiment: ALP activity of osteoblasts derived from BMSCs; assay type: cell-based, rat; conditions: 1 μM, seven days
Description: as §1, §2

[7] = HEK293-CB2 cells, pretreated with 1 μM AM630 for 30 min, then 1 μM compound 6 h

SMILES | matrix mineralization of osteoblasts derived from mBMSC [1] | IC50 [2] [nM] | agonistic effect on CB2R (relative luminescence / fluorescence expression in HEK293-CB2) ([3]; 1 μM, 6 h, HEK293-CB2 cells) | reversal of the agonistic effect on CB2R by AM630 [3, 7] | proliferation of mBMSCs cells [4] | TRAP activity of osteoclasts derived from RAW264.7 cells induced with RANKL [5] | ALP activity of osteoblasts derived from mBMSC [6] | agonistic effect on CB2R (relative luminescence / fluorescence expression in HEK293-CB2) [3] | reversal of the agonistic effect on CB2R by AM630 [3] | signal average and standard deviation (positive control group) ([3]; screening system validation, forskolin 1 μM) [%] | reversal effect on the agonistic effect of HU308 on CB2R [3]
C[C@H]1[C@H](C)CC[C@]2(C)CC[C@]3(C)C(=CC(=O)[C@@H]4[C@@]5(C)CC[C@@H](O)[C@](C)(C(=O)O)[C@@H]5CC[C@]43C)[C@H]12 [11-Keto-beta-boswellic acid] | increased | 73 | could increase the fluorescence expression | could be abated by AM630 | increased | inhibited TRAP activity | increased | – | – | – | –
COc1ccc(/C=C/C(=O)c2c(O)cc(OC)cc2OC)cc1 [Flavokawain A] | increased | 902 | could increase the fluorescence expression | could be abated by AM630 | increased | inhibited TRAP activity | increased | – | – | – | –
COC1=CC(=O)O[C@@H](CCc2ccc3c(c2)OCO3)C1 [Dihydromethysticin] | increased | 35.7 | could increase the fluorescence expression | could be abated by AM630 | increased | – | increased | – | – | – | –
CC(=O)OCC1=C[C@@H]2OC(=O)C3=CO[C@@H](O[C@@H]4O[C@H](CO)[C@@H](O)[C@H](O)[C@H]4O)[C@H]1[C@@H]32 [Asperuloside] | – | 281 | – | – | had no effect on the proliferation | – | – | could increase the fluorescence expression | could be abated by AM630 | – | –
C=C[C@@]1(C)CC(=O)[C@]2(O)[C@@]3(C)[C@@H](O)CCC(C)(C)[C@@H]3[C@H](O)[C@H](OC(C)=O)[C@@]2(C)O1 [forskolin, reference compound] | – | – | – | – | – | – | – | – | – | 63.3 ± 4.4 | –
COc1cc(O)c(C(=O)/C=C/c2ccc(O)cc2)c(OC)c1 [Flavokawain C] | – | 5170 | could increase the fluorescence expression | could be abated by AM630 | had no effect on the proliferation | – | – | – | – | – | –
O=c1c2cc(O)c(O)cc2oc2cc(O)c([C@@H]3O[C@H](CO)[C@@H](O)[C@H](O)[C@H]3O)c(O)c12 [Mangiferin] | increased | 1170 | – | – | increased | inhibited TRAP activity | increased | could increase the fluorescence expression | could be abated by AM630 | – | –
COc1ccc(C(=O)c2c(C)n(CCN3CCOCC3)c3cc(I)ccc23)cc1 [AM630, reference compound] | – | – | – | – | – | – | – | – | – | – | mitigated
COc1cc(O)ccc1/C=C/C(=O)c1ccc(O)cc1 [Echinatin] | increased | 90.5 | could increase the fluorescence expression | could be abated by AM630 | increased | inhibited TRAP activity | increased | – | – | – | –
O=c1cc(-c2ccc(O)c(O)c2)oc2c([C@@H]3O[C@H](CO)[C@@H](O)[C@H](O)[C@H]3O)c(O)cc(O)c12 [Orientin] | – | 111 | could increase the fluorescence expression | could be abated by AM630 | had no effect on the proliferation | – | – | – | – | – | –
COc1cc(/C=C/c2ccccc2)oc(=O)c1 [Desmethoxyyangonin] | increased | 29.9 | could increase the fluorescence expression | could be abated by AM630 | increased | inhibited TRAP activity | increased | – | – | – | –
